Experimental data as given in ChEMBL document CHEMBL5241118, “4-Aminopyrazolopyrimidine scaffold and its deformation in the design of tyrosine and serine/threonine kinase inhibitors in medicinal chemistry” (RSC Med Chem, 2022).
Blank lines part the entries; values can stand above or below the compound they belong to.

What was measured:
[1] = biological target: Fibroblast growth factor receptor 2 (Homo sapiens, UniProt P21802); assay: Inhibition of human recombinant FGFR2 in the presence of ATP at 0.8 uM measured after 1 hr by fluorescence based assay
[2] = Clearance in rat at 1 mg/kg, iv; type: ADME, organism-based; settings: in vivo
[3] = Half life in rat at 1 mg/kg, iv; type: ADME, organism-based; settings: in vivo
[4] = AUC in rat at 3 mg/kg, po; type: ADME, organism-based; set-up: dose 3 mg/kg, route po; settings: in vivo
[5] = Half life in rat at 3 mg/kg , po; type: ADME, organism-based; settings: in vivo
[6] = Oral bioavailability in rat at 3 mg/kg; type: ADME, organism-based; settings: in vivo
[7] = biological target: Fibroblast growth factor receptor 3 (Homo sapiens, UniProt P22607); assay: Inhibition of FGFR3 (unknown origin)
[8] = biological target: Vascular endothelial growth factor receptor 2 (Homo sapiens, UniProt P35968); assay: Inhibition of VEGFR2 (unknown origin)
[9] = Inhibition of human recombinant 1R N-terminal His-tagged (919 to 1343 residues) expressed in baculovirus infected Sf21 measured after 20 mins by western blot analysis
[10] = biological target: T1, Epidermal growth factor receptor (Homo sapiens, UniProt P00533); assay: Inhibition of human recombinant His-tagged EGFR expressed in baculovirus using poly-Gluo-Tyr as a substrate measured after 24 hrs by western blot analysis
[11] = Inhibition of 1R (unknown origin); set-up: species or system Homo sapiens
[12] = biological target: T1, Epidermal growth factor receptor; assay: Inhibition of wild type EGFR (unknown origin)
[13] = biological target: T2, Phosphatidylinositol 4,5-bisphosphate 3-kinase catalytic subunit delta isoform (Homo sapiens, UniProt O00329); assay: Inhibition of PI3Kdelta (unknown origin) at 1 uM
T2 sequence (O00329 whole entry): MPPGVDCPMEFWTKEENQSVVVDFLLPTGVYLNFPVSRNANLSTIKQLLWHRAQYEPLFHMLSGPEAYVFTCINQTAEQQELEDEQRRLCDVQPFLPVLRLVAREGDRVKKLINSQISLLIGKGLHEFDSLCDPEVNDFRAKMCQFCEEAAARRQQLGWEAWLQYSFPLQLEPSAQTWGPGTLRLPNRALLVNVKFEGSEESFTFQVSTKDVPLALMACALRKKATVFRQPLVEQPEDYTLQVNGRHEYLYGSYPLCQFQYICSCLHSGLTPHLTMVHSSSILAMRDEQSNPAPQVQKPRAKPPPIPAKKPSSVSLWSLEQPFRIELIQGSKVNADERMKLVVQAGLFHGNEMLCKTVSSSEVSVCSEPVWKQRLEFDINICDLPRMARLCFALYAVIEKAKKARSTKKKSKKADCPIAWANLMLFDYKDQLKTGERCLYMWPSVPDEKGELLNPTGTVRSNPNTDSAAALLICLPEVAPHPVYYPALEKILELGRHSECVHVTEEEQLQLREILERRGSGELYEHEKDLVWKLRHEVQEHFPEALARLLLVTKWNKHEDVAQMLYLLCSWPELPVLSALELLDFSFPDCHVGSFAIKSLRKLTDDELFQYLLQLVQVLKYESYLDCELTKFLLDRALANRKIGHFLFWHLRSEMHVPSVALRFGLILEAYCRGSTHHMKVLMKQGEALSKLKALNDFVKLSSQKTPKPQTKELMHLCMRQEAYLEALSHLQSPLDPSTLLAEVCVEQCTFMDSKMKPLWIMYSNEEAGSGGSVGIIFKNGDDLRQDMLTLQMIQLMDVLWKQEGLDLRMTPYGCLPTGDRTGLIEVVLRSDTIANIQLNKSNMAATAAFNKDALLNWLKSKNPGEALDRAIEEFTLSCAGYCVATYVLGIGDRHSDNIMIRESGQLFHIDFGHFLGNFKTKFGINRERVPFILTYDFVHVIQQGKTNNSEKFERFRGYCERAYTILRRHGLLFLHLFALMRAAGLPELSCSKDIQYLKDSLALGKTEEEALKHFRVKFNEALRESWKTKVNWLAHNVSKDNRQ

[14] = biological target: Proto-oncogene tyrosine-protein kinase receptor Ret (Homo sapiens, UniProt P07949); assay: Inhibition of recombinant GST-tagged RET (unknown origin) using EAIYAAPFKKK as substrate in the presence of ATP of 100 uM by western blot analysis
[15] = Antiproliferative activity against human MINO cells assessed as reduction cell viability measured after 24 hrs by Cell Titer-Glo Luminescent Cell Viability Assay; type: functional, cell-based
JeKo-1 = assay: Antiproliferative activity against human JeKo-1 cells assessed as reduction cell viability measured after 24 hrs by Cell Titer-Glo Luminescent Cell Viability Assay; type: functional, cell-based; settings: JeKo-1, 24 h
Z-138 = assay: Antiproliferative activity against human Z138 cells assessed as reduction cell viability measured after 24 hrs by Cell Titer-Glo Luminescent Cell Viability Assay; type: functional, cell-based; settings: Z-138, 24 h
Maver1 = assay: Antiproliferative activity against human MAVER-1 cells assessed as reduction cell viability measured after 24 hrs by Cell Titer-Glo Luminescent Cell Viability Assay; type: functional, cell-based; settings: Maver1, 24 h
[16] = biological target: Cytoplasmic tyrosine-protein kinase BMX (Homo sapiens, UniProt P51813); assay: Inhibition of BMX (unknown origin)
MV4-11 = assay: Antitumor activity against human MV4-11 cells xenografted in athymic nu/nu mouse model assessed as tumor growth inhibition at 50 mg/kg administered a day measured after 14 days relative to control; type: functional; settings: MV4-11, 336 h, time 14 day, read-out: TGI
animal or person = type: functional; settings: Homo sapiens, HCC, 336 h, time 14 day, read-out: TGI
Description: Antitumor activity against human HCC cells xenografted in athymic nu/nu mouse model assessed as tumor growth inhibition at 50 mg/kg measured after 14 days relative to control

Hep 3B2 = assay: animal or person; settings: Mus musculus, Hep3B, 336 h, read-out: TGI
Description: Antitumor activity against human Hep3B cells xenografted in athymic nu/nu mouse model assessed as tumor growth inhibition at 50 mg/kg measured after 14 days relative to control

T1 sequence (P00533 whole entry): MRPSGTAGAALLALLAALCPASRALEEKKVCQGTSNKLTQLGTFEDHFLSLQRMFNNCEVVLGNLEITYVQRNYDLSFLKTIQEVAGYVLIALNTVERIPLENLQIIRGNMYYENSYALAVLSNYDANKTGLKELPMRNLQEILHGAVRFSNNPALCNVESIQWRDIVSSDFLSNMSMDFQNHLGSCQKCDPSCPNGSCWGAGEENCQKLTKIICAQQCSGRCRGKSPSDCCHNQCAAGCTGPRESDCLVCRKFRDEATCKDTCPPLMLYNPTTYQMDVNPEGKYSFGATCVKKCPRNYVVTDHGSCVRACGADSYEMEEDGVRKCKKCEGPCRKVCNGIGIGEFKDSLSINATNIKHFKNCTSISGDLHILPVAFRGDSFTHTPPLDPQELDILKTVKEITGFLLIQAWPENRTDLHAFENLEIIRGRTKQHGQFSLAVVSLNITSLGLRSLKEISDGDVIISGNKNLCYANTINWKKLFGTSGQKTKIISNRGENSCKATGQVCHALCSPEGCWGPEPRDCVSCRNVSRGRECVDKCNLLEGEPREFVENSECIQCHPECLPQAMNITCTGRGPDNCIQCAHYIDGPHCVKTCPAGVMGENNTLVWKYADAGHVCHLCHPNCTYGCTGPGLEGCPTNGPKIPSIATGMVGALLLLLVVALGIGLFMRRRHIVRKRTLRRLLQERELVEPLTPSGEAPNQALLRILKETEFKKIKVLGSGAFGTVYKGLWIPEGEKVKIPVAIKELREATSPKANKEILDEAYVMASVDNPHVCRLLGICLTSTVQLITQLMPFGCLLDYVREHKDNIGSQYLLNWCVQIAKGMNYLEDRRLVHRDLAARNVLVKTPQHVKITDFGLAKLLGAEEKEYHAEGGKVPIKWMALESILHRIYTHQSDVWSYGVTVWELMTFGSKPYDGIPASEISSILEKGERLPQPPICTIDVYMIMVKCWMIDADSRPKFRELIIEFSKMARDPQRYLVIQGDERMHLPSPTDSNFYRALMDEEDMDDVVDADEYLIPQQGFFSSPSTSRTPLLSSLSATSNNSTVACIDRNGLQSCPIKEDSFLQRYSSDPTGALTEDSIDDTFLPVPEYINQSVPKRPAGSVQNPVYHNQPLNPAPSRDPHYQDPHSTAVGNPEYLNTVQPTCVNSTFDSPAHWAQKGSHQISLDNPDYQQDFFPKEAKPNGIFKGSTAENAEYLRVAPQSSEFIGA
Vascular endothelial growth factor receptor 2, sequence (P35968 whole entry, the tested form may be a part): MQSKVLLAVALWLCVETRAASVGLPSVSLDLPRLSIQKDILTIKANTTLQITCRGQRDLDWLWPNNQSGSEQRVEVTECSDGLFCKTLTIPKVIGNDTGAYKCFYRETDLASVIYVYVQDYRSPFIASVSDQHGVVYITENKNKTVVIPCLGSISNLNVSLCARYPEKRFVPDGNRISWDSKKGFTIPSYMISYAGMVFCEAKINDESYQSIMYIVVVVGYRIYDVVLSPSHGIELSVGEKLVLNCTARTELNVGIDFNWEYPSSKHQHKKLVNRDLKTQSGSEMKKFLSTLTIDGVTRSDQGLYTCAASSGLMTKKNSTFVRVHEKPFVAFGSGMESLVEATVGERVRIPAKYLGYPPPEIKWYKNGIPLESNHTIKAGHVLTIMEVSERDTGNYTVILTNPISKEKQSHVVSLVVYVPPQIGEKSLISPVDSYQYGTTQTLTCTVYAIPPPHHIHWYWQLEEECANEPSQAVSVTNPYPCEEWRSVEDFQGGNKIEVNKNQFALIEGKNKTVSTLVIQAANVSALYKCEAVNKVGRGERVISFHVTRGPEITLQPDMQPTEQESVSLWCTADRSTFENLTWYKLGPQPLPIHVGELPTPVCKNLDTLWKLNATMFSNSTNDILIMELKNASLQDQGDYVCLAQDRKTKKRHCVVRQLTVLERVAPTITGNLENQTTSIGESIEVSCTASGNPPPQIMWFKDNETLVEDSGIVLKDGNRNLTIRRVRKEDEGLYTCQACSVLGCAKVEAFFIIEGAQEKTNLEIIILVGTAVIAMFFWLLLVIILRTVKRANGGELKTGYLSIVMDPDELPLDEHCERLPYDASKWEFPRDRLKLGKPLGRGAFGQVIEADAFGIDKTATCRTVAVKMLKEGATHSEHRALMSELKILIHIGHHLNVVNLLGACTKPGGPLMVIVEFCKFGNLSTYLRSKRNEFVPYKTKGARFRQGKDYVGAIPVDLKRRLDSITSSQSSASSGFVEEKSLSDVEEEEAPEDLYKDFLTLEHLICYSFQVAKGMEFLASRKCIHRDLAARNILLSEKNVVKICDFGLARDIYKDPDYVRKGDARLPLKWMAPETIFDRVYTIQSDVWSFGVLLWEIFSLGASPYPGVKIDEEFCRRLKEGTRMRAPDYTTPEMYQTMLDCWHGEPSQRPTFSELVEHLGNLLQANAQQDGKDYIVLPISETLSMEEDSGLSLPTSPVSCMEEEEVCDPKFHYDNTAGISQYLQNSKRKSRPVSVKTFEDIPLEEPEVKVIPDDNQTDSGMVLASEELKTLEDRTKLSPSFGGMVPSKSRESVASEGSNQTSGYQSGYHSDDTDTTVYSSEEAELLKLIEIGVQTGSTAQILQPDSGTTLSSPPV
Cytoplasmic tyrosine-protein kinase BMX, sequence (P51813 whole entry): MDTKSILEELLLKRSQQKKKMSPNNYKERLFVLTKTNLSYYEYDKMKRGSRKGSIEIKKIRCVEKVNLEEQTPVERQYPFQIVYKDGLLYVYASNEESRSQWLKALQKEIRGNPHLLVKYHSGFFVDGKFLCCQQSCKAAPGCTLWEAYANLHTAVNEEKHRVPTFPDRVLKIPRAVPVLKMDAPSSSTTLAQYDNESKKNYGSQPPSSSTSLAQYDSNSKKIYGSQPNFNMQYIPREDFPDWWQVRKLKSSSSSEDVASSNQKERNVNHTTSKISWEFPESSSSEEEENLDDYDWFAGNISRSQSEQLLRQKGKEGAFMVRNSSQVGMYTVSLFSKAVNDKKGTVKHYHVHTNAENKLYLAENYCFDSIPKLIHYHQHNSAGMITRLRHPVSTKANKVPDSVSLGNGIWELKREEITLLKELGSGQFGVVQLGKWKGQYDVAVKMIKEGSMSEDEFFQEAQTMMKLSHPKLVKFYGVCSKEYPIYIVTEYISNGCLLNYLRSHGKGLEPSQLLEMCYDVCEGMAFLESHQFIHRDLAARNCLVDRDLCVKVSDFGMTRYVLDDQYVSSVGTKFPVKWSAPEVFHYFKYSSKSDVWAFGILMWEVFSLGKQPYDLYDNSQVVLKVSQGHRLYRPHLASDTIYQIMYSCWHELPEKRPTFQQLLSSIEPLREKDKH
Fibroblast growth factor receptor 3, sequence (P22607 whole entry): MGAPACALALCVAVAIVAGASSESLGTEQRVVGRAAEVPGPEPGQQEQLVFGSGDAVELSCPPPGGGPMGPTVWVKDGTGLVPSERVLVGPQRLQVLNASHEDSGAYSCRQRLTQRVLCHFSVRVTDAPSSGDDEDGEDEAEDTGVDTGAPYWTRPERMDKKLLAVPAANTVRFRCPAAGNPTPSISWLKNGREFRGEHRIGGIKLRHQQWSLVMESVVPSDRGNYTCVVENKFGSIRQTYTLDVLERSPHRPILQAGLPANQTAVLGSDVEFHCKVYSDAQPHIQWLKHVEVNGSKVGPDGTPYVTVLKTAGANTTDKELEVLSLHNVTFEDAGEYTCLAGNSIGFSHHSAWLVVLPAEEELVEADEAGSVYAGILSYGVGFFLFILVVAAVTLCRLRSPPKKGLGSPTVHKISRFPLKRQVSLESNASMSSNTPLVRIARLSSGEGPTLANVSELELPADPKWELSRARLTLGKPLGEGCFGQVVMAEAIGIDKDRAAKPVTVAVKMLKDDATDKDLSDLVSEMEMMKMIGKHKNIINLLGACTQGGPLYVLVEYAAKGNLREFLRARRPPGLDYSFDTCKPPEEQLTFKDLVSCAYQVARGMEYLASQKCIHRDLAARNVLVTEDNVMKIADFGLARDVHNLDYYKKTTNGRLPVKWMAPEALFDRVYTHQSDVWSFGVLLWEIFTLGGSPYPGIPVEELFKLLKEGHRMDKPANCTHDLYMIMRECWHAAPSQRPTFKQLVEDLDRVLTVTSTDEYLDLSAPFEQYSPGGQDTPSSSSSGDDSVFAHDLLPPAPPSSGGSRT
Fibroblast growth factor receptor 2, sequence (P21802 whole entry): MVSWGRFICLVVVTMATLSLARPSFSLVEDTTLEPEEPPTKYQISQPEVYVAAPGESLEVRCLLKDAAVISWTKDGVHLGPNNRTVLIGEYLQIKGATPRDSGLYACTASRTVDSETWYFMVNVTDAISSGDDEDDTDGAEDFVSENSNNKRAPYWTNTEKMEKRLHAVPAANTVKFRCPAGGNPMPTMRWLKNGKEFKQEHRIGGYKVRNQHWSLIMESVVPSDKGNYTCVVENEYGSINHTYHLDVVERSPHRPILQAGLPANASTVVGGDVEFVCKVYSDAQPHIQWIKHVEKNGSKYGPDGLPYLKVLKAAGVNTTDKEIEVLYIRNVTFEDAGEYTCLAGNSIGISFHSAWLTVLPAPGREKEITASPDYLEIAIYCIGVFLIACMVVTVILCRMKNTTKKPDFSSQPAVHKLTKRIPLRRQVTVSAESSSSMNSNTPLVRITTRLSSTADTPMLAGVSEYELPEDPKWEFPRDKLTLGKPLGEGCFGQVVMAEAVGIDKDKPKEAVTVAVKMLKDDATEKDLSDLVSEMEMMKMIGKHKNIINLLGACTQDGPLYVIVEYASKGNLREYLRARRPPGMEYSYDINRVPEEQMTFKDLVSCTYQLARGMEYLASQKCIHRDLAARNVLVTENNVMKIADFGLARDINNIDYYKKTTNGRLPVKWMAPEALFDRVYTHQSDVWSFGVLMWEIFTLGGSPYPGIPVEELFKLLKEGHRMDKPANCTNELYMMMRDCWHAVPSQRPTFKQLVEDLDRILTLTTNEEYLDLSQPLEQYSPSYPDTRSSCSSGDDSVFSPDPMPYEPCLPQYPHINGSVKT

SMILES: COCc1c(-c2cc3cc(C)cc(OC)c3s2)c2c(N)ncnn2c1CN1CCNC(=O)C1 [ROGARATINIB]
IC50 [1]: < 1 nM | clearance [2]: 7.5 mL/min/kg | half-life [3]: 12 h | AUC [4]: 0.78 kg·h/L | half-life [5]: 12 h | bioavailability [6]: 22%

SMILES: C#CCO[C@@H]1[C@H](C)[C@@H](COC(=O)c2ccc(S(=O)(=O)F)cc2)O[C@H]1n1nc(-c2ccc(C)cc2)c2c(N)ncnc21
IC50 [7]: 1.6 nM | IC50 [8]: 475 nM

SMILES: C=CC(=O)N[C@H]1C=C(C)c2c(-c3cnc4ccccc4c3)c3c(N)ncnc3n2C1 [CLN-081]
IC50 [12]: 1.1 nM

SMILES: C=CC(=O)N1CCC[C@@H](n2nc(-c3ccc(Oc4ccccc4)cc3)c3c(N)ncnc32)C1 [IBRUTINIB]
IC50 [15]: 15700 nM | IC50 (JeKo-1): 1100 nM | IC50 (Z-138): 9700 nM | IC50 (Maver1): 7800 nM

SMILES: CN(C)CC(=O)N1CCC[C@@H](n2nc(-c3ccc(Oc4ccccc4)cc3)c3c(N)ncnc32)C1
inhibition in vivo at 50 mg/kg (MV4-11): 88%

SMILES: C=CC(=O)N1CC[C@H](n2nc(C#Cc3cc(OC)cc(OC)c3)c3c(N)ncnc32)C1 [FUTIBATINIB]
inhibition in vivo at 50 mg/kg (animal or person): 29.8% | inhibition in vivo at 50 mg/kg (Hep 3B2): 42%

More lines, now with the values ahead:

IC50 [9]: 2300 nM
SMILES: Nc1ncnc2c1c(-c1cccc(OCc3ccccc3)c1)cn2[C@H]1C[C@@H](CN2CCC2)C1

IC50 [10]: 150 nM
SMILES: COc1cccc(-c2cn(-c3ccc(CCN4CCC(O)CC4)cc3)c3ncnc(N)c23)c1

IC50 [11]: 2800 nM
SMILES: Nc1ncnc2c1c(-c1cccc(OCc3ccccc3)c1)cn2[C@H]1C[C@H](CN2CCCC2)C1

IC50 [13]: 1 nM
SMILES: Nc1ncnc2c1c(-c1cc(O)c(Br)c(F)c1)nn2[C@H]1CCc2ccccc21

IC50 [14]: 4 nM
SMILES: CC(C)(C)n1nc(-c2ccc(NC(=O)c3cc(C(F)(F)F)ccc3F)cc2)c2c(N)ncnc21

IC50 [16]: 0.9 nM
SMILES: N#CN1CCC[C@@H](n2nc(-c3ccc(Oc4ccc(F)cc4F)cc3)c(C(N)=O)c2N)C1
